# Legend:
# [1] = tested on: PSN1 cells; experiment: CellTiter-Glo viability and CalcuSyn synergy, PRMT5 inhibitor + KIF18A, 6 days; settings: for Combination Fa: 8640 min
# [2] = tested on: SUM149PT cells; experiment: CellTiter-Glo viability and CalcuSyn synergy, PRMT5 inhibitor + olaparib, 6 days; assay type: cell-based; settings: for Combination Fa: 8640 min
# Description: (§1) Raw luminescent values were converted to fraction affected (Fa) with the following equation: […]
# (§2) Synergy analysis was performed using the CalcuSyn software to determine CI scores based on the drug concentrations used and corresponding Fa values. Results are shown in Tables 1-3 below. *CI Values (Calcusyn): Strong Synergism: 0.1-0.3; Synergism: 0.3-0.7; Moderate Synergism: 0.7-0.85; Slight Synergism: 0.85-0.9; Nearly Additive: 0.9-1.1.
# [3] = tested on: MIAPACA2T2 cells; experiment: CellTiter-Glo viability and CalcuSyn synergy, PRMT5 inhibitor + sotorasib, 6 days; settings: for Combination Fa: 8640 min
# [4] = tested on: A549 cells; experiment: CellTiter-Glo viability and CalcuSyn synergy, PRMT5 inhibitor + trametinib, 6 days; settings: for Combination Fa: 8640 min
# [5] = tested on: LU99 NSCLC xenografts; experiment: Tumor growth inhibition, LU99 NSCLC xenografts (Example 12); assay type: in vivo, Female NOD/SCID mice; settings: Compound B 100 mg/kg orally once daily + sotorasib 100 mg/kg; versus either single agent alone
# From the text: 10 Female NOD/SCID mice were implanted with LU99 NSCLC tumor xenografts. Mean tumor volumes for each grouping were between 100-200 mm^3. […] Plotted data represents the TGI (tumor growth inhibition), n=10 for each group.
# [6] = tested on: MIAPACA2T2 cells; experiment: CellTiter-Glo viability and CalcuSyn synergy, PRMT5 inhibitor + KIF18A, 6 days; settings: for Combination Fa: 8640 min
# [7] = tested on: HCC1395 cells; experiment: CellTiter-Glo viability and CalcuSyn synergy, PRMT5 inhibitor + olaparib, 6 days; settings: for Combination Fa: 8640 min
# [8] = tested on: LU99 cells; experiment: CellTiter-Glo viability and CalcuSyn synergy, PRMT5 inhibitor + KIF18A, 6 days; assay type: cell-based; settings: for Combination Fa: 8640 min
# Description: as §1
# as §2, with “13-15” for “1-3”
# [9] = Compound B 0.0384 μM + KIF18A 0.003951 μM
# [10] = Compound B 0.0384 μM + KIF18A 0.005926 μM
# [11] = Compound B 0.0384 μM + KIF18A 0.008889 μM
# [12] = Compound B 0.0384 μM + KIF18A 0.013333 μM
# [13] = Compound B 0.0384 μM + KIF18A 0.02 μM
# [14] = Compound B 0.0384 μM + KIF18A 0.03 μM
# [15] = Compound B 0.0384 μM + KIF18A 0.045 μM
# [16] = Compound B 0.277008 μM + olaparib 0.103573 μM
# [17] = Compound B 0.277008 μM + olaparib 0.176074 μM
# [18] = Compound B 0.277008 μM + olaparib 0.299326 μM
# [19] = Compound B 0.277008 μM + olaparib 0.508854 μM
# [20] = Compound B 0.277008 μM + olaparib 0.865052 μM
# [21] = Compound B 0.277008 μM + olaparib 1.47059 μM
# [22] = Compound B 0.277008 μM + olaparib 2.5 μM
# [23] = Compound B 0.4374 μM + sotorasib 0.00596 μM
# [24] = Compound B 0.4374 μM + sotorasib 0.009537 μM
# [25] = Compound B 0.4374 μM + sotorasib 0.015259 μM
# [26] = Compound B 0.4374 μM + sotorasib 0.024414 μM
# [27] = Compound B 0.4374 μM + sotorasib 0.039063 μM
# [28] = Compound B 0.4374 μM + sotorasib 0.0625 μM
# [29] = Compound B 0.4374 μM + sotorasib 0.1 μM
# [30] = Compound B 0.0425 μM + trametinib 0.000213 μM
# [31] = Compound B 0.0425 μM + trametinib 0.000404 μM
# [32] = Compound B 0.0425 μM + trametinib 0.000767 μM
# [33] = Compound B 0.0425 μM + trametinib 0.001458 μM
# [34] = Compound B 0.0425 μM + trametinib 0.00277 μM
# [35] = Compound B 0.0425 μM + trametinib 0.005263 μM
# [36] = Compound B 0.0425 μM + trametinib 0.01 μM
# [37] = Compound B 0.2302 μM + KIF18A 0.021256 μM
# [38] = Compound B 0.2302 μM + KIF18A 0.040386 μM
# [39] = Compound B 0.2302 μM + KIF18A 0.076734 μM
# [40] = Compound B 0.2302 μM + KIF18A 0.145794 μM
# [41] = Compound B 0.2302 μM + KIF18A 0.277008 μM
# [42] = Compound B 0.2302 μM + KIF18A 0.526316 μM
# [43] = Compound B 0.2302 μM + KIF18A 1 μM
# [44] = Compound B 1.4579 μM + olaparib 0.103573 μM
# [45] = Compound B 1.4579 μM + olaparib 0.176074 μM
# [46] = Compound B 1.4579 μM + olaparib 0.299326 μM
# [47] = Compound B 1.4579 μM + olaparib 0.508854 μM
# [48] = Compound B 1.4579 μM + olaparib 0.865052 μM
# [49] = Compound B 1.4579 μM + olaparib 1.47059 μM
# [50] = Compound B 1.4579 μM + olaparib 2.5 μM
# [51] = Compound B 0.0729 μM + KIF18A 0.003984 μM
# [52] = Compound B 0.0729 μM + KIF18A 0.005578 μM
# [53] = Compound B 0.0729 μM + KIF18A 0.007809 μM
# [54] = Compound B 0.0729 μM + KIF18A 0.010933 μM
# [55] = Compound B 0.0729 μM + KIF18A 0.015306 μM
# [56] = Compound B 0.0729 μM + KIF18A 0.021429 μM
# [57] = Compound B 0.0729 μM + KIF18A 0.03 μM
smiles,measurement,setting,value
Cc1cc2cc(C(=O)N(Cc3ccc(C(F)(F)F)cn3)[C@@H](C)c3ncccn3)ccc2nc1N [Compound B],Computed CI value,[1]; [9],0.627
same,Combination Fa,[1]; [9],0.778
same,Computed CI value,[1]; [10],0.75
same,Combination Fa,[1]; [10],0.751
same,Computed CI value,[1]; [11],0.594
same,Combination Fa,[1]; [11],0.819
same,Computed CI value,[1]; [12],0.645
same,Combination Fa,[1]; [12],0.825
same,Computed CI value,[1]; [13],0.674
same,Combination Fa,[1]; [13],0.844
same,Computed CI value,[1]; [14],0.778
same,Combination Fa,[1]; [14],0.852
same,Computed CI value,[1]; [15],0.813
same,Combination Fa,[1]; [15],0.88
same,Computed CI value,[2]; [16],0.618
same,Combination Fa,[2]; [16],0.747
same,Computed CI value,[2]; [17],0.579
same,Combination Fa,[2]; [17],0.769
same,Computed CI value,[2]; [18],0.777
same,Combination Fa,[2]; [18],0.745
same,Computed CI value,[2]; [19],0.582
same,Combination Fa,[2]; [19],0.813
same,Computed CI value,[2]; [20],0.565
same,Combination Fa,[2]; [20],0.849
same,Computed CI value,[2]; [21],0.543
same,Combination Fa,[2]; [21],0.888
same,Computed CI value,[2]; [22],0.504
same,Combination Fa,[2]; [22],0.925
same,Computed CI value,[3]; [23],0.533
same,Combination Fa,[3]; [23],0.678
same,Computed CI value,[3]; [24],0.425
same,Combination Fa,[3]; [24],0.749
same,Computed CI value,[3]; [25],0.443
same,Combination Fa,[3]; [25],0.781
same,Computed CI value,[3]; [26],0.535
same,Combination Fa,[3]; [26],0.798
same,Computed CI value,[3]; [27],0.543
same,Combination Fa,[3]; [27],0.838
same,Computed CI value,[3]; [28],0.471
same,Combination Fa,[3]; [28],0.887
same,Computed CI value,[3]; [29],0.83
same,Combination Fa,[3]; [29],0.875
same,Computed CI value,[4]; [30],0.569
same,Combination Fa,[4]; [30],0.4457
same,Computed CI value,[4]; [31],0.514
same,Combination Fa,[4]; [31],0.5278
same,Computed CI value,[4]; [32],0.5
same,Combination Fa,[4]; [32],0.6046
same,Computed CI value,[4]; [33],0.506
same,Combination Fa,[4]; [33],0.6769
same,Computed CI value,[4]; [34],0.452
same,Combination Fa,[4]; [34],0.7607
same,Computed CI value,[4]; [35],0.357
same,Combination Fa,[4]; [35],0.8409
same,Computed CI value,[4]; [36],0.589
same,Combination Fa,[4]; [36],0.8482
same,anti-tumor activity,[5],significant anti-tumor activity versus either single agent alone
same,Computed CI value,[6]; [37],0.763
same,Combination Fa,[6]; [37],0.5368
same,Computed CI value,[6]; [38],0.591
same,Combination Fa,[6]; [38],0.6323
same,Computed CI value,[6]; [39],0.578
same,Combination Fa,[6]; [39],0.7018
same,Computed CI value,[6]; [40],0.881
same,Combination Fa,[6]; [40],0.7173
same,Computed CI value,[6]; [41],0.826
same,Combination Fa,[6]; [41],0.7944
same,Computed CI value,[6]; [42],1.158
same,Combination Fa,[6]; [42],0.8219
same,Computed CI value,[6]; [43],2.512
same,Combination Fa,[6]; [43],0.8073
same,Computed CI value,[7]; [44],0.217
same,Combination Fa,[7]; [44],0.5945
same,Computed CI value,[7]; [45],0.278
same,Combination Fa,[7]; [45],0.6178
same,Computed CI value,[7]; [46],0.338
same,Combination Fa,[7]; [46],0.6595
same,Computed CI value,[7]; [47],0.509
same,Combination Fa,[7]; [47],0.6756
same,Computed CI value,[7]; [48],0.679
same,Combination Fa,[7]; [48],0.711
same,Computed CI value,[7]; [49],0.706
same,Combination Fa,[7]; [49],0.7778
same,Computed CI value,[7]; [50],0.59
same,Combination Fa,[7]; [50],0.8539
same,Computed CI value,[8]; [51],0.937
same,Combination Fa,[8]; [51],0.596
same,Computed CI value,[8]; [52],0.625
same,Combination Fa,[8]; [52],0.7067
same,Computed CI value,[8]; [53],0.753
same,Combination Fa,[8]; [53],0.712
same,Computed CI value,[8]; [54],0.651
same,Combination Fa,[8]; [54],0.7754
same,Computed CI value,[8]; [55],0.797
same,Combination Fa,[8]; [55],0.785
same,Computed CI value,[8]; [56],0.996
same,Combination Fa,[8]; [56],0.7939
same,Computed CI value,[8]; [57],1.312
same,Combination Fa,[8]; [57],0.797

# Source: patent US20260373156A1, “CANCER TREATMENTS USING MTA-COOPERATIVE PRMT5 INHIBITORS” (AMGEN INC., priority 2022, published 2026)
